Experiment: Thermal stability by TGA and comparative UV-Vis before and after heating up to 220° C.
Assay type: physicochemical
Method: Thermal transitions of polymer films were obtained using DSC (TA instruments Q100) at a heating rate of 10° C./min over a temperature range of about −80 to 200° C. The thermal properties of the polymers were measured by thermogravimetric analysis (TGA) on a TA Instruments, […]. The samples were heated up to 220° C. at a heating rate of 15° C./min under a dry nitrogen atmosphere (flow rate: 70 mL/min) on a TA Instruments 2950 thermogravimetric analyzer. X-ray diffraction (XRD) measurements were conducted via a Rigaku diffractometer in transmission mode with Cu Kα X-rays (λ=0.154 nm) operating at 40 kV and 40 mA. The experiment was carried out at 25° C. with a scan speed of 0.5°/min over a scan range of 5° to 40°.
The thermal property of the polymer-guest system was also investigated by the TGA to ensure system stability during the high temperature layer multiplying coextrusion process. […] A viscosity-match temperature of layer multiplying co-extrusion was determined by a melt flow indexer (MFI) at a low shear rate as shown in FIG. 5. A 60/40 feed ratio of PEO100K/PEO200K in layer B was obtained with the processing temperature of 200° C. selected based on material rheological compatibility. The ABAB-type layer multiplication process was conducted accordingly with PE as the protective surface layer and the technique described herein used to form the multilayer film.

CN(C)c1ccc(N=Nc2ccc(S(=O)(=O)[O-])cc2)cc1.[Na+] [MO, methyl orange]
conjugation structure of MO after heating (comparative UV-Vis): remained intact
